Test results from patent US20030129678A1, “Methods, pharmaceutical formulations and kits for identification of subjects at risk for cancer” (priority 1999, published 2003).

Tests used:
[1] = tested on: mouse B-16 melanoma cells; assay: In vitro cytotoxicity (51Cr release), primed and activated mouse macrophages against B-16 melanoma cells; settings: priming with PMA (1 μm), activation with CCPA (lam)
Method: (§1) B-16 melanoma cells are washed with serum free RPMI medium by centrifugation. 25-30 μCi of Na ^51Cr is diluted to 1 ml of RPMI and transferred to the melanoma cells suspension. The melanoma cells are incubated with Na ^51Cr at 37° C. for 1 hour. The unincorporated radioactivity is removed by centrifugation at 1000×g for 10 minutes. The melanoma cells are allowed to leak for 2 hours and then washed again. The final suspension is diluted in RPMI. The cell number is counted in a hemocytometer.
(§2) Macrophages are washed with medium containing 100 mM MgCl2, 2 U/ml adenosine deaminase and 10% fetal bovine serum. Macrophages are then challenged with 1 μM PMA in the above medium for 2 hours and then stimulated with different concentrations of (0-1 μM) of 2-chloro-N^6-cyclopentyl adenosine (CCPA) for 30 minutes. The macrophages are then incubated with ^51Cr-labelled B-16 melanoma cells at a ratio of 20:1. Six hours later, a fraction of the supernatant is aspirated and counted in a gamma counter.
(§3) Total releasable counts are measured by lysing the melanoma cells in hypotonic medium.
(§4) The results are expressed as percentage (%) ^51Cr release as follows: [formula]
Percentage ^51 Cr release is a measure of the lysing of cells (i.e., killing of cells), and is therefore an indicia of cytotoxicity.

[2] = tested on: mouse P815 mastocytoma tumor cells; assay: In vitro cytotoxicity (51Cr release), primed and activated mouse macrophages against P815 cells; settings: mouse macrophages (IC-21); priming with PMA (1 μM), activation with CCPA (1 μM)
Method: as §1, §2, §3, §4
This same protocol is repeated, except that P815 mouse mastocytoma tumor cells are used instead of the B-16 melanoma cells.

TNF-α = assay: Functional experiments: TNF-α release from macrophages (ELISA); type: cell-based, mouse
Method: Macrophages are then challenged with 1 μM PMA in the above medium for 2 hours and then stimulated with different concentrations of (0-1 μM) of 2-chloro-N^6-cyclopentyl adenosine (CCPA) at 37° C. for 1-6 hours. The supernatant is collected and the TNF-α levels are estimated by commercially available ELISA kits (R & D Systems, Minneapolis, Minn.).

[3] = tested on: A375 human melanoma tumor cells; assay: In vitro cytotoxicity (51Cr release), primed and activated human macrophages against A375 cells; settings: human macrophages (SC hematopoietic cell line and a healthy volunteer); priming with PMA (1 μm), activation with CCPA (1 μm)
Method: as §1, §2, §3, §4

Nb2 lymphoma = settings: cited from earlier work
[4] = tested on: normal murine bone marrow cells; settings: cited from earlier work
[5] = tested on: LNCaP prostate carcinoma cells; settings: cited from earlier work
K-562 leukemia = settings: cited from earlier work
A1 adenosine receptors = biological target: T1, A1 adenosine receptors (Mus musculus, UniProt Q60612); assay: Competition experiments  against 125I-BWA844U in macrophage membranes; type: binding
T1 sequence (Q60612 1-326): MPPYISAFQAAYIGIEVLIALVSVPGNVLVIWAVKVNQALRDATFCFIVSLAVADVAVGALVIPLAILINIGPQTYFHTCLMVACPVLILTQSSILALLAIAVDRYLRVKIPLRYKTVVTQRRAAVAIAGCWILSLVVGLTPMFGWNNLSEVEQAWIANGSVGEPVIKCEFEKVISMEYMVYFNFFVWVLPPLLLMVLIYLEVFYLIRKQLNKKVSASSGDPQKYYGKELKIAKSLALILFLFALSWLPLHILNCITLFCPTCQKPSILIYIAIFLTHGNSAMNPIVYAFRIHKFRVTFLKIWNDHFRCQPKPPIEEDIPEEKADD
Method: Non-specific binding is determined in presence of 1 mM theophylline. Membrane bound radioactivity is separated by filtration over a cell harvester. The data is analyzed by non-linear regression analysis using GraphPad prism software and the Ki value is calculated.

[6] = biological target: T2, A1 adenosine receptor expression (Homo sapiens, UniProt P30542); assay: Saturation binding in human macrophages (SC) after cisplatin treatment; type: cell-based; settings: human macrophages (SC, ATCC); cisplatin 2.5 μM for 24 hours
T2 construct: This same protocol is repeated using membranes from human macrophages (SC cells)
T2 sequence (P30542 1-326): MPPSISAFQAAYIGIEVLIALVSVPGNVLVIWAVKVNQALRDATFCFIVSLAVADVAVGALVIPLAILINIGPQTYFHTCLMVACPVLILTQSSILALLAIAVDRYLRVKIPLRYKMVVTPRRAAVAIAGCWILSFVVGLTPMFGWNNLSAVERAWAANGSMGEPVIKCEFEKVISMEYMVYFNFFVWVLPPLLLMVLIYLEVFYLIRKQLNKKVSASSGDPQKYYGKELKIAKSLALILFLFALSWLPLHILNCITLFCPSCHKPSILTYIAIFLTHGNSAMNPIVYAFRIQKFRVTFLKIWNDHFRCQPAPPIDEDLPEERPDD
Method: Incubation of the macrophage fractions with the A1 adenosine receptor ligand ^125I-BWA844U (see Patel et al., J. Pharmacol. Exp. Ther. 33:585 (1988) in concentrations ranging from 1.25-20 nM was carried out at 37° C. for 1 hour. Non-specific binding is determined in the presence of 1 mM theophylline. Following incubation, membrane bound radioactivity is separated by filtration over a cell harvester and counted in a gamma counter. The data is analyzed by non-linear regression using GraphPad Prism software. Thc Bmax and kd values are calculated from the analyzed data.
This same protocol is repeated using membranes from human macrophages (SC cells).

## OC[C@H]1O[C@@H](n2cnc3c(NC4CCCC4)nc(Cl)nc32)[C@H](O)[C@@H]1O [CCPA, 2-chloro-N^6-cyclopentyladenosine]
[1]; macrophages from LPS-resistant mice (WBC264-9C, ATCC)
  cytotoxicity of mouse B-16 melanoma cells: 20%
[1]; macrophages from LPS-sensitive mice (IC-21, ATCC)
  cytotoxicity of mouse B-16 melanoma cells: 50%
[2]
  cytotoxicity for mouse P815 mastocytoma tumor cells: cytotoxic
TNF-α; priming with PMA 1 μM, activation with CCPA 0-1 μM, 1-6 hours
  TNF-α release in WBC264-9C macrophages compared with IC-21 macrophages: lower
[3]
  cytotoxicity to A375 human melanoma tumor cells: cytotoxic

## Nc1ncnc2c1ncn2[C@@H]1O[C@H](CO)[C@@H](O)[C@H]1O [adenosine]
Nb2 lymphoma
  tumor cell growth: inhibits tumor cell growth
[4]
  proliferation: stimulating proliferation
[5]
  tumor cell growth: inhibits tumor cell growth
K-562 leukemia
  tumor cell growth: inhibits tumor cell growth

## N.N.[Cl][Pt][Cl] [cisplatin]
A1 adenosine receptors; cisplatin 2.5 μM for 24 hours
  effect of pretreatment on affinity of WBC264-9C macrophage membranes for MCP-1: increases the affinity
TNF-α; cisplatin 2.5 μM for 24 hours, then PMA and CCPA
  effect of pretreatment on TNF-α release from WBC264-9C macrophages: increases TNF-α release
[6]
  increase of A1 adenosine receptor expression (Bmax): approximately three-fold

## MCP-1: human recombinant monocyte chemotactic protein, chemoattractive for monocytes
A1 adenosine receptors; competition with 0.1-0.2 nM 125I-BWA844U
  affinity (Ki) in membranes from WBC264-9C macrophages compared with IC-21 macrophages: lower
